Several values for one entry are separate records, joined by “and”; a condition that tells them apart may be missing. Equal values may be shown once.
Experiments:
Format in all cases: cell-based, human
MSCs = MSCs cultured in chondrogenic medium, pellets stained with Alcian blue / Nuclear fast red; conditions: HA 200 μg/ml, A2A 5 μMol
Method: MSCs were culture in chondrogenic medium for 7, 14 and 21 days and 4 conditions were tested • control • A2A: 5 μMol aminoclonidine • HA: 200 μg/ml of hyaluronic acid • HA+A2A: 200 μg/ml of hyaluronic acid and 5 μMol aminoclonidine
At day 14 and 21, pellets were fixed in 10% buffered formalin for 6 hours, and washed twice in PBS. Pellets were then embedded in OCT (Sakura Finetek, Belgium). Sections were cut at a thickness of 5 μm and were stained with Alcian blue, before counterstained with Nuclear fast red (Klinipath, Belgium)
GAGs will be stained blue, while Nuclear fast red will counterstain cells nuclei in pink or red, and cytoplasm in pale pink. In brief, the procedure is 1) Stain in alcian blue solution for 30 minutes; 3) Wash in running tap water for 2 minutes; 4) Rinse in distilled water; 5) Counterstain in nuclear fast red solution for 5 minutes; 6) Wash in running tap water for 1 minute; 7) Dehydrate through 95% alcohol, and 2 changes of absolute alcohol, 3 minutes each; 8) clear in Ultraclear, a xylene substitute (Klinipath, Belgium); 9) Mount with Ultrakit mounting medium (Klinipahth, Belgium). Toluidine blue stains proteoglycan in red-purple (metachromatic staining) and the nucleus in blue (orthochromatic staining). Metachromasia, tissue elements staining a different color from the dye solution, is due to the pH, dye concentration and temperature of the basic dye. […]

[1] = test system: PBMC (Peripheral blood mononuclear cells); test: Proliferation assay (3H-thymidine) of PBMC
Method: (§1) PBMCs (Peripheral blood mononuclear cells) from heparinized venous blood of healthy volunteers were isolated by Ficoll-gradient centrifugation. MNC (Mononuclear cells) were washed three times in PBS and resuspended in RPMI-1640 medium supplemented with 100 U/mL penicillin, 100 μg/mL streptomycin, and 10% heat-inactivated FBS (Fetal Bovine Serum). Cells were seeded at 100.000 cells in 96-wel plate in a total volume of 200 μL/well.
(§2) PBMC, at 100.000 cells/200 μL, were plated in 96-well microtiter plates and stimulated or not with 10 μg/mL phytohemagglutinin (PHA). Effects of hyaluronic acid “HA” (200 μg/mL) and p-aminoclonidine “A2A” (5 μM) were tested on PBMC.
MSC (Mesenchymal stromal cells) were derived from 20 to 60 mL of heparinized bone marrow (BM) obtained from the iliac crest of healthy volunteers. BM was mixed with phosphate-buffered saline (PBS, 2v:v) and layered on density gradient Ficoll solution. After centrifugation, mononuclear cells were harvested from the interface and washed twice in PBS. Cells were resuspended in standard MEM medium supplemented with 15% FBS. The cells were plated at 2×10^6 cells/75 cm2 flasks and maintained in a 37° C. humidified atmosphere containing 5% CO2. Cells were allowed to attach for 24 hours prior an initial medium change. Cells were detached at day 10 using trypsin-EDTA solution for 1-5 min at 37° C. Then, cells were irradiated (10 minutes at 2200Ci) before seeding in 96-well for proliferative assays at 12.500 cells/well to obtain a ratio 1:8 (MSC:PBMC).
The culture was incubated with 1 μCi/mL 3H-thymidine for 24 hours before end of culture to measure the proliferation. Then, cells were washed twice with ice-cold PBS and twice with ice-cold 5% trichloroacetic acid (TCA). Finally, cells were lysed with 0.1N NaOH-0.1% Triton-X100. Supernatants were collected and analyzed on a beta-counter in presence of scintillation liquid. Results were done in cpm (“count per minute”=disintegration number of radioactive element observed in series of successive counts of one minute). IL-1β (beta) detection (By ELISA). Levels of IL-1β from PBMC or culture supernatants were measured by Quantikine ELISA kit (R&D Systems Inc, Mineapolis, USA). The minimum detectable concentration of IL-1β was estimated at 1.0 pg/mL.
The release of IL-1 beta by PBMC and the proliferation of PBMC, induced by PHA stimulation, were set as controls, and compared with the measures for PBMC treated with HA and/or A2A.

IL-1β = IL-1β detection (ELISA) in PBMC culture supernatants
Method: as §1, §2
MSC (Mesenchymal stromal cells) were derived from 20 to 60 mL of heparinized bone marrow (BM) obtained from the iliac crest of healthy volunteers. BM was mixed with phosphate-buffered saline (PBS, 2v:v) and layered on density gradient Ficoll solution. After centrifugation, mononuclear cells were harvested from the interface and washed twice in PBS. […]
The culture was incubated with 1 μCi/mL 3H-thymidine for 24 hours before end of culture to measure the proliferation. […] Supernatants were collected and analyzed on a beta-counter in presence of scintillation liquid. […] Levels of IL-1β from PBMC or culture supernatants were measured by Quantikine ELISA kit (R&D Systems Inc, Mineapolis, USA). […]

[2] = basal (unstimulated) conditions

In the case of `Nc1cc(Cl)c(N=C2NCCN2)c(Cl)c1` [A2A, p-aminoclonidine], the “matrix (mucopolysaccharides and glycosaminoglycans) content / production, Alcian blue staining” value (MSCs) is reported as “almost absent”, the Proliferation ([1]; PBMC stimulated with 10 μg/mL PHA, HA 200 μg/mL, A2A 5 μM, MSC:PBMC 1:8) is reported as 16212 cpm and the “effect on PBMC proliferation” value ([1]; PHA stimulated PBMC) is reported as “not able to inhibit”. For the same compound, the Proliferation ([1]; PHA stimulated PBMC, PBMC + PHA set at 100) was 101% and 100%, the “effect on PBMC proliferation” value [1, 2] was “no effect” and the Proliferation ([1]; unstimulated PBMC, HA 200 μg/mL, A2A 5 μM, MSC:PBMC 1:8) was 786 cpm. For the same compound, the Proliferation ([1]; unstimulated PBMC, PBMC + PHA set at 100) was 4.9%, the “effect on IL-1beta secretion” value (IL-1β; PHA stimulated PBMC) was “totally suppressed” and the “effect on IL-1beta secretion” value (IL-1β; [2]) was “no effect”.

From patent US9415036B2, “Pharmaceutical composition for use in the treatment or prevention of osteoarticular diseases” (BONE THERAPEUTICS, priority 2008, dated 2016)
